US20170334899A1, “AMINO-SUBSTITUTED ISOTHIAZOLES” (Bayer Pharma Aktiengesellschaft, priority 2014, published 2017)

tested on: HeLa; test: Proliferation assay (crystal violet), HeLa; format: cell-based; conditions: Homo sapiens, HeLa, 96 h, HeLa cells; 4 days incubation; crystal violet staining; read-out: IC50 inhibition of proliferation, HeLa
Method in brief: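 Four-day compound exposure (0.001-10 μM, 0.5% DMSO final) began 24 h after seeding 1000-5000 cells/well in medium with 10% fetal calf serum. Cell number read by crystal violet absorbance at 595 nm, scaled between day-zero plate and untreated control; 4-parameter fit gave IC50.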

SMILES	IC50 [µM]
Cc1nsc(Nc2cncc(C(F)(F)F)n2)c1C(=O)Nc1ccc(OCCCO)nc1 [Example 278, N-[6-(3-hydroxypropoxy)pyridin-3-yl]-3-methyl-5-{[6-(trifluoromethyl)pyrazin-2-yl]amino}-1,2-thiazole-4-carboxamide]	2.6
Cc1nsc(Nc2cnc(C(F)(F)F)cn2)c1C(=O)Nc1ccc(F)c(OCC2CCN(CCF)C2)c1 (stereo not drawn) [Example 317, N-(4-fluoro-3-{[1-(2-fluoroethyl)pyrrolidin-3-yl]methoxy}phenyl)-3-methyl-5-{[5-(trifluoromethyl)pyrazin-2-yl]amino}-1,2-thiazole-4-carboxamide]	0.45
Cc1nsc(Nc2cnc(C(F)(F)F)cn2)c1C(=O)Nc1ccc(OC2CCN(CCC(F)(F)F)C2)nc1 (stereo not drawn) [Example 298, 3-methyl-5-{[5-(trifluoromethyl)pyrazin-2-yl]amino}-N-(6-{[1-(3,3,3-trifluoropropyl)pyrrolidin-3-yl]oxy}pyridin-3-yl)-1,2-thiazole-4-carboxamide]	0.33
Cc1nsc(Nc2cnc(C(F)(F)F)cn2)c1C(=O)Nc1ccc(OCCO)nc1 [Example 277, N-[6-(2-hydroxyethoxy)pyridin-3-yl]-3-methyl-5-{[5-(trifluoromethyl)pyrazin-2-yl]amino}-1,2-thiazole-4-carboxamide]	3.2
Cc1nsc(Nc2cnc(C(F)(F)F)cn2)c1C(=O)Nc1ccc(C(=O)NC2CN(CC(F)F)C2)cc1 [Example 271, N-(4-{[1-(2,2-difluoroethyl)azetidin-3-yl]carbamoyl}phenyl)-3-methyl-5-{[5-(trifluoromethyl)pyrazin-2-yl]amino}-1,2-thiazole-4-carboxamide]	9.4
Cc1nsc(Nc2cnc(C(F)(F)F)cn2)c1C(=O)Nc1ccc(OCCNCCF)nc1 [Example 321, N-(6-{2-[(2-fluoroethyl)amino]ethoxy}pyridin-3-yl)-3-methyl-5-{[5-(trifluoromethyl)pyrazin-2-yl]amino}-1,2-thiazole-4-carboxamide]	3.4
Cc1nsc(Nc2cnc(C(F)(F)F)cn2)c1C(=O)Nc1ccc(OCCNCC(F)F)nc1 [Example 305, N-(6-{2-[(2,2-difluoroethyl)amino]ethoxy}pyridin-3-yl)-3-methyl-5-{[5-(trifluoromethyl)pyrazin-2-yl]amino}-1,2-thiazole-4-carboxamide]	1.1
Cc1nsc(Nc2cnc3ccccc3n2)c1C(=O)Nc1cccc(NS(=O)(=O)C2CCN(C(=O)OC(C)(C)C)CC2)c1 [Example 258, tert-butyl 4-{[3-({[3-methyl-5-(quinoxalin-2-ylamino)-1,2-thiazol-4-yl]carbonyl}amino)phenyl]sulfamoyl} piperidine-1-carboxylate]	7
Cc1nsc(Nc2cnc(C(F)(F)F)cn2)c1C(=O)Nc1ccc(F)c(OC2CCN(CC(F)(F)F)CC2)c1 [Example 264, N-(4-fluoro-3-{[1-(2,2,2-trifluoroethyl)piperidin-4-yl]oxy}phenyl)-3-methyl-5-{[5-(trifluoromethyl)pyrazin-2-yl]amino}-1,2-thiazole-4-carboxamide]	0.13
Cc1nsc(Nc2cnc(C(F)(F)F)cn2)c1C(=O)Nc1ccc(OCCCNCC(F)(F)F)nc1 [Example 292, 3-methyl-N-(6-{3-[(2,2,2-trifluoroethyl)amino]propoxy}pyridin-3-yl)-5-{[5-(trifluoromethyl)pyrazin-2-yl]amino}-1,2-thiazole-4-carboxamide]	1.8
COC(=O)CCc1cccc(NC(=O)c2c(C)nsc2Nc2cnc3ccccc3n2)c1 [Example 257, methyl 3-[3-({[3-methyl-5-(quinoxalin-2-ylamino)-1,2-thiazol-4-yl]carbonyl}amino)phenyl]propanoate]	7.7
Cc1nsc(Nc2cnc(C(F)(F)F)cn2)c1C(=O)Nc1ccc(F)c(OCCCNCC(F)(F)F)c1 [Example 306, N-(4-fluoro-3-{3-[(2,2,2-trifluoroethyl)amino]propoxy}phenyl)-3-methyl-5-{[5-(trifluoromethyl)pyrazin-2-yl]amino}-1,2-thiazole-4-carboxamide]	0.57
